Reference: ChEMBL document CHEMBL5233269, “Anticancer potential of spirocompounds in medicinal chemistry: A pentennial expedition” (Eur J Med Chem, 2021)
Each block holds one compound with its values, some of them ahead of it.

Columns and labels:
MCF7 [1] = test: Cytotoxicity against human MCF7 cells incubated for 48 hrs by SRB assay relative to control; format: functional; parameters: concentration or dose not given beside the values
HepG2 [2] = test: Cytotoxicity against human HepG2 cells incubated for 48 hrs by SRB assay relative to control; format: functional; parameters: concentration or dose not given beside the values
[3] = Cytotoxicity against human HBF4 cells incubated for 48 hrs by SRB assay relative to control; format: toxicity, cell-based; parameters: concentration or dose not given beside the values; conditions: hbf4, 48 h
A549 [4] = test: Anticancer activity against human A549 cells assessed as inhibition of cell proliferation; format: functional, cell-based
MCF7 [5] = test: Anticancer activity against human MCF7 cells; format: functional, cell-based
HeLa = test: Anticancer activity against human HeLa cells; format: functional, cell-based
DU-145 = test: Anticancer activity against human DU-145 cells; format: functional, cell-based
HepG2 [6] = test: Anticancer activity against human HepG2 cells assessed as inhibition of cell viability; format: functional, cell-based
HCT-116 [7] = test: Anticancer activity against human HCT-116 cells assessed as inhibition of cell growth; format: functional, cell-based
PC-3 [8] = test: Anticancer activity against human PC-3 cells assessed as inhibition of cell growth; format: functional, cell-based
MCF7 [9] = test: Anticancer activity against human MCF7 cells assessed as inhibition of cell viability; format: functional, cell-based
HepG2 [10] = test: Anticancer activity against human HepG2 cells; format: functional, cell-based
HCT-116 [11] = test: Cytotoxicity against human HCT-116 cells; format: functional, cell-based
SW-620 = test: Cytotoxicity against human SW620 cells; format: functional, cell-based
PC-3 [12] = test: Cytotoxicity against human PC-3 cells; format: functional, cell-based
A549 [13] = test: Cytotoxicity against human A549 cells; format: functional, cell-based
MCF7 [14] = test: Growth inhibition of human MCF7 cells by SRB assay; format: functional
MDA-MB-435 = test: Growth inhibition of human MDA-MB-435 cells by SRB assay; format: functional
MCF7 [15] = test: Anticancer activity against human MCF7 cells assessed as reduction in cell viability incubated for 48 hrs by MTT assay; format: functional, cell-based; conditions: MCF7, 48 h
B16-F10 = test: Anticancer activity against mouse B16-F10 cells incubated for 48 hrs by MTT assay; format: functional, cell-based; conditions: B16-F10, 48 h
A549 [16] = test: Anticancer activity against human A549 cells assessed as reduction in cell viability incubated for 48 hrs by MTT assay; format: functional, cell-based; conditions: A549, 48 h
K562 = test: Anticancer activity against human K562 cells; format: functional, cell-based
[17] = target: T1, Amine oxidase [flavin-containing] A (Rattus norvegicus, UniProt P21396); test: Inhibition of rat brain MAO-A relative to control; format: tissue-based
T1 sequence (P21396 whole entry): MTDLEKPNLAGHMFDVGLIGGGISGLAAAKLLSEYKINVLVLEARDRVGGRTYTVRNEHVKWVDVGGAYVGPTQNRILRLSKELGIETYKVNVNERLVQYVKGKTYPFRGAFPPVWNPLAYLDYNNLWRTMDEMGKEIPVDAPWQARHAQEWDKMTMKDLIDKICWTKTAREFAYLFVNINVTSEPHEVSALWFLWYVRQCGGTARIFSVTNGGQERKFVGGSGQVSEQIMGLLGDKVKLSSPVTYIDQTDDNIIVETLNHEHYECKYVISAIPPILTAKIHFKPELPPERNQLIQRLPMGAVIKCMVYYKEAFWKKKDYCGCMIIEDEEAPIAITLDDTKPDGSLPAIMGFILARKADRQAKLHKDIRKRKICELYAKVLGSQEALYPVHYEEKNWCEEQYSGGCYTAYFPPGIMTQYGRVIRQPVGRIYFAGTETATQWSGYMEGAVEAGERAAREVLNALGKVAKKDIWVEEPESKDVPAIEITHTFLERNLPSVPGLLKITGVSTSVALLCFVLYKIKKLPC

Compound: CCOC(=O)C1=C(N)N(c2ccccc2)C2=C(C(=O)CC(C)(C)C2)C12C(=O)Nc1ccccc12 (configuration not stated)
Activity (MCF7 [1]): 78%
Activity (HepG2 [2]): 37%
Activity [3]: 24%

IC50 (A549 [4]): 2.95 µM
IC50 (MCF7 [5]): 9.51 µM
IC50 (HeLa): 5.37 µM
IC50 (DU-145): 1.7 µM
Compound: O=C1OCC2Nc3ccc(Cl)cc3NC3(C(=O)Nc4ccccc43)C12 (configuration not stated)

IC50 (HepG2 [6]): 0.334 µM
IC50 (HCT-116 [7]): 0.106 µM
IC50 (PC-3 [8]): 0.112 µM
Compound: CC1CCC2(CC1)SC/C(=N\c1nnc(SC3O[C@H](CO)[C@@H](O)[C@H](O)[C@H]3O)s1)N2c1ccc(F)cc1 (some centres not stated)

IC50 (HepG2 [6]): 0.135 µM
IC50 (HCT-116 [7]): 0.12 µM
IC50 (PC-3 [8]): 0.224 µM
Compound: CC(=O)OC[C@H]1OC(Sc2nc(-c3ccc(C)o3)c3c(n2)N(c2ccc(F)cc2)C2(CCCCC2)S3)[C@H](OC(C)=O)[C@@H](OC(C)=O)[C@@H]1OC(C)=O (some centres not stated)

IC50 (MCF7 [9]): 32 µM
IC50 (HepG2 [10]): 39 µM
Compound: N#CC1=C(N)NC2=C(CCCCCC2)C12C(=O)Nc1ccccc12 (configuration not stated)

Compound: O=C1Oc2cc(Cl)ccc2C2C1CN(C(=O)N1CCCCC1)C21C(=O)Nc2ccccc21 (configuration not stated)
IC50 (HCT-116 [11]): 15.8 µM
IC50 (SW-620): 0.49 µM
IC50 (PC-3 [12]): > 50 µM
IC50 (A549 [13]): 7.09 µM

GI50 (MCF7 [14]): 90.9 µM
GI50 (MDA-MB-435): > 100 µM
Compound: N#CC1=C(N)OC2=C(C(=O)c3ccccc32)C12C(=O)Nc1ccc(F)cc12 (configuration not stated)

IC50 (MCF7 [15]): 12.3 µM
IC50 (B16-F10): 9.63 µM
IC50 (A549 [16]): 10.4 µM
Compound: COC1=CC2(C=C(C(=O)Oc3c(F)cc(F)cc3F)c3cc(OC)cc(OC)c32)C(OC)=CC1=O (configuration not stated)

GI50 (MCF7 [14]): > 100 µM
GI50 (MDA-MB-435): 2.1 µM
Compound: N#CC1=C(N)OC2=C(C(=O)c3ccccc32)C12C(=O)Nc1ccc(Cl)cc12 (configuration not stated)

IC50 (MCF7 [15]): 15.6 µM
IC50 (B16-F10): 20.9 µM
IC50 (A549 [16]): 20.4 µM
Compound: COC1=CC2(C=C(C(=O)NNc3ccc(F)c(F)c3)c3cc(OC)cc(OC)c32)C(OC)=CC1=O (configuration not stated)

IC50 (K562): 9.7 µM
Compound: O=C1N(Cc2ccccc2)c2ccccc2[C@@]12[C@H](O)c1ccccc1[C@@H]2[C@]1(CN2CCCCC2)C(=O)N(Cc2ccccc2)c2ccccc21

IC50 (K562): 21.4 µM
Compound: CCN1C(=O)[C@@]2(c3cccc(C)c31)[C@H](O)c1ccccc1[C@@H]2[C@]1(CN2CCCC2)C(=O)N(CC)c2c(C)cccc21

GI50 (MCF7 [14]): > 100 µM
GI50 (MDA-MB-435): 1.8 µM
Compound: N#CC1=C(N)OC2=C(C(=O)c3ccccc32)C12C(=O)Nc1ccc(Br)cc12 (configuration not stated)

IC50 (HepG2 [6]): 0.285 µM
IC50 (HCT-116 [7]): 0.0958 µM
IC50 (PC-3 [8]): 0.282 µM
Compound: Cc1ccc(-c2nc(SC3O[C@H](CO)[C@@H](O)[C@H](O)[C@H]3O)nc3c2SC2(CCCCC2)N3c2ccc(F)cc2)o1 (some centres not stated)

IC50 (K562): 21.9 µM
Compound: CN1C(=O)[C@@]2(c3cccc(Cl)c31)[C@H](O)c1ccccc1[C@@H]2[C@]1(CN2CCSCC2)C(=O)N(C)c2c(Cl)cccc21

inhibition (INH) [17]: 66%
Compound: CCn1c(SC)nc2c(c1=O)C1(CCCCC1)Cc1ccccc1-2

GI50 (MCF7 [14]): 62 µM
GI50 (MDA-MB-435): > 100 µM
Compound: N#CC1=C(N)OC2=C(C(=O)c3ccccc32)C12C(=O)Nc1ccc(I)cc12 (configuration not stated)

IC50 (A549 [4]): 1.55 µM
IC50 (MCF7 [5]): 2.14 µM
IC50 (HeLa): 9.58 µM
IC50 (DU-145): 1.35 µM
Compound: Cc1ccc2c(c1)C1(Nc3ccccc3NC3COC(=O)C31)C(=O)N2 (configuration not stated)

Compound: O=C(C1CN(C(=O)N2CCCCC2)C2(C(=O)Nc3ccccc32)C1c1ccc(Cl)cc1O)N1CCOCC1 (configuration not stated)
IC50 (HCT-116 [11]): > 50 µM
IC50 (SW-620): < 0.08 µM
IC50 (PC-3 [12]): > 50 µM
IC50 (A549 [13]): 36.8 µM

inhibition (INH) [17]: 66%
Compound: CCn1c(SCC(=O)Nc2ccccc2Cl)nc2c(c1=O)C1(CCCCC1)Cc1ccccc1-2

IC50 (K562): 26.7 µM
Compound: CCN(CC)C[C@@]1([C@H]2c3ccccc3[C@@H](O)[C@]23C(=O)N(C)c2c(C)cccc23)C(=O)N(C)c2c(C)cccc21

IC50 (A549 [4]): 3.8 µM
IC50 (MCF7 [5]): 2.34 µM
IC50 (HeLa): 11.9 µM
IC50 (DU-145): 3.16 µM
Compound: O=C1OCC2Nc3ccccc3NC3(C(=O)N(Cc4ccccc4)c4ccc(Br)cc43)C12 (configuration not stated)

Compound: CC1(C)CC(=O)C2=C(C1)N(c1ccc(Cl)cc1)C(N)=C(C#N)C21C(=O)Nc2ccccc21 (configuration not stated)
Activity (MCF7 [1]): 79%
Activity (HepG2 [2]): 38%
Activity [3]: 30%
